These are literature values, as cited in patent US4721704A, “Potent synthetic atrial peptide analogs” (Peninsula Laboratories, Inc., priority 1986, dated 1988).

Ends that are not written are not given here.

The conditions of data set [1]: Atriopeptin III and α-hANP compared with each other.
A further data set concerns patients. The following applies: 400 μg bolus doses.

Regarding “α-human atrial natriuretic polypeptide (SLRRSSCFGGRMDRIGAQSGLGCNSFRY; ends and bridges not checked; cysteine pairing not given here; UniProt P01160 124-151, looked up) [α-hANP, peptide isolated from human atria]”, the “hypotensive, diuretic and natriuretic activities” value in data set [1] is listed as “about comparable”. Also, in the data set on patients, the diuretic action entry is reported as “acting as a diuretic” and the “effect on blood pressure” value is on record as “decreasing blood pressure”.
